# Values of other authors as cited in US5811459A, “Ortho substituted aromatic compounds useful as antagonists of the pain enhancing effects of E-type prostaglandins” (Zeneca Limited, priority 1994, dated 1998).
# Key:
# [1] = test system: cat trachea or chick ileum; details: other tissues such as the cat trachea or chick ileum
# [2] = test system: guinea pig ileum or dog fundus; details: some tissues such as guinea pig ileum or dog fundus
structure (smiles),measurement,setting,value
CC(=O)NNC(=O)N1Cc2ccccc2Oc2ccc(Cl)cc21 [SC-19220],block of the effect of PGE2,[1],not on other tissues
same,block of the effect of PGE2,[2],blocks the effect of PGE2
